Measured values taken from ChEMBL document CHEMBL1201862, “PubChem BioAssay data set” (2004).
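Grown in 96-well plates, cells were treated for 48 hours with each compound at five concentrations. Insufficient inhibition: endpoint recorded as highest concentration tested. The concentration for 50% growth inhibition is given as GI50.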 Activity calls are given as the source filed them. No stated cut-off is given here; in the data, active = GI50 up to about 1.1 µM and inactive = higher.

Legend:
Experiment in all cases: NCI tumour cell line growth inhibition, 48 h
NCI-H23 = system: NCI-H23
TK-10 = system: TK-10
HCT-116 = system: HCT-116
SK-MEL-28 = system: SK-MEL-28
SF-539 = system: SF-539
IGROV-1 = system: IGROV-1
Hs-578T = system: Hs-578T
UACC-62 = system: UACC-62
MDA-MB-435 = system: MDA-MB-435
Malme-3M = system: Malme-3M
HL-60 = system: HL-60
SK-OV-3 = system: SK-OV-3
NCI-H226 = system: NCI-H226
SF-268 = system: SF-268
MOLT-4 = system: MOLT-4
UO-31 = system: UO-31
OVCAR-4 = system: OVCAR-4
HOP-92 = system: HOP-92
DU-145 = system: DU-145

Measured: GI50

O=c1[nH]c2ccc(CC(=S)N3CCOCC3)cc2o1
inactive: NCI-H23 > 100 µM | TK-10 > 100 µM | HCT-116 > 100 µM | SK-MEL-28 > 100 µM | SF-539 > 100 µM | IGROV-1 > 100 µM | Hs-578T > 100 µM | UACC-62 > 100 µM | MDA-MB-435 > 100 µM | Malme-3M > 100 µM | HL-60 89.9 µM | SK-OV-3 > 100 µM | NCI-H226 > 100 µM | SF-268 > 100 µM | MOLT-4 > 100 µM

O=C(Nc1ccccn1)c1cc2c(cc1Cl)Sc1nccn1S2(=O)=O
inactive: NCI-H23 27.4 µM | UO-31 27 µM | TK-10 33.4 µM | HCT-116 28.4 µM | SK-MEL-28 44.3 µM | IGROV-1 23.8 µM | Hs-578T > 100 µM | OVCAR-4 33 µM | UACC-62 42 µM | MDA-MB-435 27.9 µM | HOP-92 51.9 µM | Malme-3M 63 µM | HL-60 23.9 µM | SK-OV-3 38.1 µM | NCI-H226 24.2 µM | SF-268 37.8 µM | MOLT-4 31.3 µM

CSC(SC)=C1C(=O)N(c2ccccc2)N=C1C
inactive: TK-10 22.1 µM | HCT-116 22.9 µM | SF-539 36.7 µM | IGROV-1 29.3 µM | Hs-578T 88.1 µM | OVCAR-4 34.3 µM | UACC-62 27 µM | HOP-92 2.75 µM | Malme-3M 21.7 µM | SK-OV-3 29.2 µM | NCI-H226 30.3 µM | SF-268 61.1 µM | MOLT-4 21.7 µM

CSC1(CC(=O)N2CCCCC2)C(=O)Nc2ccccc21 (configuration not stated)
inactive: NCI-H23 > 100 µM | UO-31 > 100 µM | TK-10 > 100 µM | HCT-116 > 100 µM | SK-MEL-28 > 100 µM | SF-539 > 100 µM | IGROV-1 > 100 µM | Hs-578T > 100 µM | OVCAR-4 > 100 µM | UACC-62 > 100 µM | MDA-MB-435 > 100 µM | Malme-3M > 100 µM | DU-145 > 100 µM | SK-OV-3 > 100 µM | NCI-H226 > 100 µM | SF-268 > 100 µM | MOLT-4 > 100 µM

COC(=O)C(=O)C(C(=O)OC)C(=O)C(=O)Nc1ccccc1C(N)=O (configuration not stated)
inactive: NCI-H23 > 100 µM | UO-31 > 100 µM | TK-10 > 100 µM | HCT-116 > 100 µM | SK-MEL-28 > 100 µM | SF-539 > 100 µM | IGROV-1 > 100 µM | Hs-578T > 100 µM | OVCAR-4 66.5 µM | UACC-62 > 100 µM | MDA-MB-435 > 100 µM | HOP-92 > 100 µM | Malme-3M > 100 µM | HL-60 > 100 µM | SK-OV-3 > 100 µM | NCI-H226 > 100 µM | SF-268 > 100 µM | MOLT-4 > 100 µM

Nc1nc(NCc2ccccc2)cc(NCc2ccccc2)n1
inactive: NCI-H23 5 µM | UO-31 6.31 µM | TK-10 8.02 µM | HCT-116 3.45 µM | SK-MEL-28 12 µM | SF-539 3.45 µM | IGROV-1 4.44 µM | Hs-578T 2.86 µM | OVCAR-4 9.89 µM | UACC-62 3.67 µM | MDA-MB-435 2.48 µM | HOP-92 5.38 µM | Malme-3M 5.66 µM | HL-60 37.8 µM | SK-OV-3 9.08 µM | NCI-H226 7.5 µM | SF-268 4 µM | MOLT-4 7.18 µM

Cn1c2ccccc2n2c3ncccc3c(=S)c(C#N)c12
inactive: NCI-H23 > 100 µM | UO-31 > 100 µM | HCT-116 > 100 µM | SK-MEL-28 > 100 µM | IGROV-1 > 100 µM | Hs-578T > 100 µM | OVCAR-4 > 100 µM | UACC-62 > 100 µM | MDA-MB-435 > 100 µM | Malme-3M > 100 µM | DU-145 > 100 µM | HL-60 > 100 µM | SK-OV-3 > 100 µM | NCI-H226 > 100 µM | SF-268 > 100 µM | MOLT-4 > 100 µM

N/C(=N\c1ccc(Cl)cc1)NS(=O)(=O)c1cccc2nsnc12
inactive: NCI-H23 34.7 µM | UO-31 28.4 µM | TK-10 22.3 µM | HCT-116 31.8 µM | SK-MEL-28 21 µM | SF-539 37.3 µM | IGROV-1 23.7 µM | Hs-578T 20.9 µM | OVCAR-4 15.2 µM | UACC-62 17 µM | HOP-92 16.1 µM | Malme-3M 18 µM | DU-145 82.2 µM | HL-60 17.9 µM | SK-OV-3 74.8 µM | NCI-H226 68.7 µM | SF-268 26.8 µM | MOLT-4 26.9 µM

CC(=O)N1c2ccccc2C2=CC3C4C(=O)N(c5ccccc5)C(=O)C4C21C1C(=O)N(c2ccccc2)C(=O)C31 (configuration not stated)
inactive: NCI-H23 48.2 µM | UO-31 48.3 µM | TK-10 > 100 µM | HCT-116 3.83 µM | SK-MEL-28 > 100 µM | SF-539 2.61 µM | IGROV-1 75.7 µM | UACC-62 30.6 µM | HOP-92 > 100 µM | Malme-3M 99.5 µM | HL-60 20.7 µM | SK-OV-3 23.1 µM | SF-268 17.3 µM | MOLT-4 30.8 µM

CC(=O)N1CC(C)(C)c2c1cc(C)c(O)c2C
inactive: NCI-H23 > 100 µM | UO-31 > 100 µM | TK-10 > 100 µM | HCT-116 > 100 µM | SK-MEL-28 > 100 µM | SF-539 > 100 µM | IGROV-1 > 100 µM | Hs-578T > 100 µM | OVCAR-4 > 100 µM | UACC-62 > 100 µM | MDA-MB-435 > 100 µM | DU-145 > 100 µM | HL-60 86.9 µM | SK-OV-3 > 100 µM | NCI-H226 > 100 µM | SF-268 > 100 µM | MOLT-4 > 100 µM

Cn1c(S)nnc1CNc1ccc(-c2nnc(S)n2C)cc1
inactive: NCI-H23 > 100 µM | UO-31 > 100 µM | TK-10 > 100 µM | HCT-116 > 100 µM | SK-MEL-28 > 100 µM | SF-539 > 100 µM | IGROV-1 > 100 µM | OVCAR-4 > 100 µM | MDA-MB-435 > 100 µM | HOP-92 > 100 µM | Malme-3M > 100 µM | DU-145 > 100 µM | HL-60 > 100 µM | SK-OV-3 > 100 µM | NCI-H226 > 100 µM | SF-268 > 100 µM | MOLT-4 > 100 µM

Cc1cc(C)nc(NC(=O)c2ccc(Br)s2)c1
inactive: NCI-H23 77.6 µM | UO-31 25.6 µM | TK-10 > 100 µM | HCT-116 10.7 µM | SK-MEL-28 > 100 µM | SF-539 56.9 µM | IGROV-1 > 100 µM | OVCAR-4 > 100 µM | UACC-62 95.3 µM | MDA-MB-435 79.1 µM | HOP-92 > 100 µM | Malme-3M > 100 µM | DU-145 > 100 µM | SK-OV-3 > 100 µM | NCI-H226 > 100 µM | SF-268 > 100 µM | MOLT-4 > 100 µM
